In patent US11292791B2 (priority 2017, dated 2022) one finds IC50 data, which are given here for 44 compounds.

For the first experiment, the target named is T1, BRD4 (Homo sapiens (Human), UniProt O60885). Nature of the experiment: biochemical. The following applies: BRD4 IC50 (μM gmean).
As for `COC(=O)N1c2ccc3c(nc(Cc4ccccc4)n3CCC(N)=O)c2CC[C@@H]1C` [Example 289, methyl (7S)-2-benzyl-3-(2-carbamoylethyl)-7-methyl-3H,6H,7H,8H,9H-imidazo[4,5-f]quinoline-6-carboxylate], the IC50 – broadly, the concentration that gives 50% inhibition – lay in the range of 1 to 1000 µM.

The target of the next experiment is T1, BRD4.
Assay: not given
Conditions: read-out: BRD4 IC50 (μM gmean).
On to `COC(=O)N1c2ccc3c(nc(CC4CCN(C(C)=O)CC4)n3[C@@H]3CCC[C@@H](C(=O)O)C3)c2CC[C@@H]1C` [Example 892], for which the half-inhibitory concentration (IC50) was 1 to 1000 µM.

On to `COC(=O)N1c2ccc3c(nc(C(C)Cc4cnn(C)c4)n3C3CCC(C(=O)O)CC3)c2CC[C@@H]1C` (some centres unmarked) [Example 894], for which the IC50 was in the range of 1 to 1000 µM.

Regarding `COC(=O)N1c2ccc3c(nc(S(=O)(=O)c4ccccc4)n3[C@H]3CC[C@H](C(=O)O)CC3)c2CC[C@@H]1C` [Example 895], the IC50 fell in the range of 1 to 1000 µM.

For the compound `COC(=O)N1c2ccc3c(nc(CC(=O)N4CCCCC4)n3[C@@H]3CCC[C@@H](C(=O)O)C3)c2CC[C@@H]1C` [Example 896], the IC50 was 1 to 1000 µM.

On to `COC(=O)N1c2ccc3c(nc(CC(C(=O)O)c4ccc(Cl)cc4)n3C3CCCOC3)c2CC[C@@H]1C` (some centres unmarked) [Example 900], for which the IC50 was in the range of 1 to 1000 µM.

In the case of `COC(=O)N1c2ccc3c(nc(CC(C(=O)O)c4ccc(C(F)F)cc4)n3C3CCCOC3)c2CC[C@@H]1C` (some centres unmarked) [Example 901], the IC50 fell in the range of 1 to 1000 µM.

With `COC(=O)N1c2ccc3c(nc(CC(C(=O)O)c4ccc(C(F)F)cc4)n3C3CCCOC3)c2CC[C@@H]1C` (some centres unmarked) [Example 902], the IC50 was 1 to 1000 µM.

Regarding `COC(=O)N1c2ccc3c(nc(CC(C(=O)O)c4ccccc4)n3C3COCC(F)(F)C3)c2CC[C@@H]1C` (some centres unmarked) [Example 903], the IC50 lay in the range of 1 to 1000 µM.

`COC(=O)N1c2ccc3c(nc(CC(C(=O)O)c4ccc(C5CC5)cc4)n3C3CCCOC3)c2CC[C@@H]1C` (some centres unmarked) [Example 904]: the IC50 lay within 1 to 1000 µM.

For the compound `COC(=O)N1c2ccc3c(nc(CC(C(=O)O)c4ccccc4)n3-c3cccc(C#N)c3)c2CC[C@@H]1C` (some centres unmarked) [Example 905], the IC50 lay in the range of 1 to 1000 µM.

As to `COC(=O)N1c2ccc3c(nc([C@H](C)Cn4cc(Cl)cn4)n3[C@H]3CC[C@H](C(=O)O)CC3)c2CC[C@@H]1C` [Example 907], the IC50 fell in the range of 1 to 1000 µM.

Take `COC(=O)N1c2ccc3c(nc(Oc4ccccc4)n3[C@H]3CC[C@H](C(=O)O)CC3)c2CC[C@@H]1C` [Example 908]: the IC50 fell in the range of 1 to 1000 µM.

With `COC(=O)N1c2ccc3c(nc(Nc4c(C)n[nH]c4C)n3[C@H]3CC[C@H](C(=O)O)CC3)c2CC[C@@H]1C` [Example 909], the IC50 was 1 to 1000 µM.

On to `COC(=O)N1c2ccc3c(nc(C(C)Cn4cc(C(F)F)cn4)n3C3CCC(C(=O)O)CC3)c2CC[C@@H]1C` (some centres unmarked) [Example 912], for which the IC50 was 1 to 1000 µM.

On to `COC(=O)N1c2ccc3c(nc(CC(C(=O)O)c4ccc(C)cc4)n3C3COCC(F)(F)C3)c2CC[C@@H]1C` (some centres unmarked) [Example 913], for which the IC50 is 1 to 1000 µM.

As to `COC(=O)N1c2ccc3c(nc(CC(C(=O)O)c4ccccc4)n3-c3ccc(C#N)cc3)c2CC[C@@H]1C` (some centres unmarked) [Example 914], the half-inhibitory concentration (IC50) lay within 1 to 1000 µM.

`COC(=O)N1c2ccc3c(nc(Nc4cc(C)nn4C)n3[C@H]3CC[C@H](C(=O)O)CC3)c2CC[C@@H]1C` [Example 915]: the IC50 lay in the range of 1 to 1000 µM.

Consider `COC(=O)N1c2ccc3c(nc(Nc4cc(C)nn4C)n3[C@@H]3CCC[C@@H](C(=O)O)C3)c2CC[C@@H]1C` [Example 916], for which the IC50 lay in the range of 1 to 1000 µM.

With `COC(=O)N1c2ccc3c(nc(C(C)Cn4cccn4)n3C3CCC(C(=O)O)CC3)c2CC[C@@H]1C` (some centres unmarked) [Example 917], the IC50 lay within 1 to 1000 µM.

Turning to `COC(=O)N1c2ccc3c(nc(C(C)Cn4cc(C)cn4)n3C3CCC(C(=O)O)CC3)c2CC[C@@H]1C` (some centres unmarked) [Example 918], the IC50 was 1 to 1000 µM.

`COC(=O)N1c2ccc3c(nc(CC(C(=O)O)c4ccc(C(F)F)cc4)n3C3COCC(F)(F)C3)c2CC[C@@H]1C` (some centres unmarked) [Example 920]: the IC50 fell in the range of 1 to 1000 µM.

For the compound `COC(=O)N1c2ccc3c(nc(C(=O)NC4CCCC4)n3[C@@H]3CCC[C@@H](C(=O)O)C3)c2CC[C@@H]1C` [Example 922], the IC50 was 1 to 1000 µM.

For the compound `COC(=O)N1c2ccc3c(nc(C(=O)N(C)C4CCCC4)n3[C@@H]3CCC[C@@H](C(=O)O)C3)c2CC[C@@H]1C` [Example 923], the IC50 fell in the range of 1 to 1000 µM.

As for `COC(=O)N1c2ccc3c(nc(C(C)Cn4cc(Cl)cn4)n3C3CCS(=O)(=O)C3)c2CC[C@@H]1C` (some centres unmarked) [Example 926], the IC50 fell in the range of 1 to 1000 µM.

`COC(=O)N1c2ccc3c(nc(CC(C(=O)O)c4ccc(C)cc4)n3C3COCC(F)(F)C3)c2CC[C@@H]1C` (some centres unmarked) [Example 927]: the IC50 was in the range of 1 to 1000 µM.

For `COC(=O)N1c2ccc3c(nc(C(C)Cc4cnn(C)c4)n3C3CCNCC3)c2CC[C@@H]1C` (some centres unmarked) [Example 928], the IC50 is 1 to 1000 µM.

Turning to `COC(=O)N1c2ccc3c(nc(C(C)Cn4cc(Cl)cn4)n3C3CCS(=O)(=O)C3)c2CC[C@@H]1C` (some centres unmarked) [Example 930], the IC50 lay within 1 to 1000 µM.

Regarding `COC(=O)N1c2ccc3c(nc(Nc4ccncc4F)n3[C@H]3CC[C@H](C(=O)O)CC3)c2CC[C@@H]1C` [Example 933], the IC50 is 1 to 1000 µM.

Turning to `COC(=O)N1c2ccc3c(nc(C(=O)N(C)c4ccccc4)n3[C@@H]3CCC[C@@H](C(=O)O)C3)c2CC[C@@H]1C` [Example 934], the IC50 lay in the range of 1 to 1000 µM.

As to `COC(=O)N1c2ccc3c(nc(CCn4cccn4)n3CCN3CCNCC3)c2CC[C@@H]1C` [Example 935], the IC50 fell in the range of 1 to 1000 µM.

`COC(=O)N1c2ccc3c(nc(CC(C(=O)O)c4ccc(C(F)F)cc4)n3C3COCC(F)(F)C3)c2CC[C@@H]1C` (some centres unmarked) [Example 937]: the IC50 was in the range of 1 to 1000 µM.

Consider `COC(=O)N1c2ccc3c(nc(C(=O)N(C)C4CCCCC4)n3[C@@H]3CCC[C@@H](C(=O)O)C3)c2CC[C@@H]1C` [Example 939], for which the IC50 lay in the range of 1 to 1000 µM.

With `COC(=O)N1c2ccc3c(nc(Nc4ccncc4F)n3[C@@H]3CCC[C@@H](C(=O)O)C3)c2CC[C@@H]1C` [Example 941], the IC50 lay in the range of 1 to 1000 µM.

Take `COC(=O)N1c2ccc3c(nc(Nc4ccnc(C)c4)n3[C@H]3CC[C@H](C(=O)O)CC3)c2CC[C@@H]1C` [Example 943]: the IC50 is 1 to 1000 µM.

In the case of `COC(=O)N1c2ccc3c(nc(C(C)Cn4cccn4)n3C3CCS(=O)(=O)CC3)c2CC[C@@H]1C` (some centres unmarked) [Example 946], the IC50 fell in the range of 1 to 1000 µM.

As for `COC(=O)N1c2ccc3c(nc(C(C)Cc4ccccc4)n3C3CCNCC3)c2CC[C@@H]1C` (some centres unmarked) [Example 947], the IC50 was 1 to 1000 µM.

On to `COC(=O)N1c2ccc3c(nc(C(=O)Nc4ccccc4)n3[C@@H]3CCC[C@@H](C(=O)O)C3)c2CC[C@@H]1C` [Example 948], for which the IC50 lay in the range of 1 to 1000 µM.

In the case of `COC(=O)N1c2ccc3c(nc(C(C)Cn4cc(C)cn4)n3C3CCS(=O)(=O)C3)c2CC[C@@H]1C` (some centres unmarked) [Example 949], the IC50 was in the range of 1 to 1000 µM.

Regarding `COC(=O)N1c2ccc3c(nc(C(C)Cc4cnn(C)c4)n3C3CCNCC3)c2CC[C@@H]1C` (some centres unmarked) [Example 951], the IC50 was in the range of 1 to 1000 µM.

In the case of `COC(=O)N1c2ccc3c(nc(C(C)Cn4cccn4)n3C3CCS(=O)(=O)C3)c2CC[C@@H]1C` (some centres unmarked) [Example 955], the IC50 is 1 to 1000 µM.

As for `COC(=O)N1c2ccc3c(nc(C(C)Cn4cccn4)n3C3CCS(=O)(=O)C3)c2CC[C@@H]1C` (some centres unmarked) [Example 956], the IC50 lay within 1 to 1000 µM.

Consider `COC(=O)N1c2ccc3c(nc(C(C)Cn4cc(C)cn4)n3C3CCS(=O)(=O)C3)c2CC[C@@H]1C` (some centres unmarked) [Example 958], for which the IC50 lay within 1 to 1000 µM.

As to `COC(=O)N1c2ccc3c(nc(C(=O)Nc4ccccc4Cl)n3[C@@H]3CCC[C@@H](C(=O)O)C3)c2CC[C@@H]1C` [Example 961], the IC50 was in the range of 1 to 1000 µM.
